In patent publication US20150051202A1, “TRIAZOLOPYRAZINE DERIVATIVES” (Merck Patent GmbH, priority 2012, published 2015):

What was measured:
[1] = test system: tumors over-expressing IDO; conditions: several tumor models, monotherapy; cited from earlier work
[2] = biological target: GCN2 (Homo sapiens, UniProt Q9P2K8); experiment: GCN2 enzyme assay (TR-FRET Lanthascreen, GFP-eIF2alpha substrate); assay type: biochemical
Outline: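 GCN2 (30 nM) incubated at room temperature with 10 μM ATP and 80 nM GFP-eIF2alpha in 50 mM Hepes pH 7.0, 10 mM MgCl2, 5 mM MnCl2, 2 mM DTT, 0.1% BSA, 1% DMSO. Reaction stopped with EDTA; phospho-eIF2alpha detected by antibody TR-FRET, excitation 340 nm.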

[3] = biological target: T1, SYK (Homo sapiens, UniProt P43405); experiment: SYK enzyme assay (Flash plate assay / Caliper mobility shift assay); assay type: biochemical
T1 construct: purchased BPS Bioscience, CA, USA
Outline: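 Flashplate: 2.5 nM SYK, 400 nM biotinylated peptide and 10 μM ATP with 33P-ATP, pH 7.5, 1 h at 30 °C, EDTA stop, radioactivity read, background with 0.1 μM staurosporine. Caliper: 90 min at 25 °C in HEPES pH 7.5, 1 mM MgCl2, 1 mM DTT, mobility-shift percent conversion of fluorescent peptide. IC50 from dose-response in both.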

[4] = test system: murine model of RA; conditions: cited from earlier work
[5] = test system: RA; conditions: RA Phase II studies in humans; cited from earlier work
[6] = test system: 3 LL lung carcinoma; conditions: mice; Rodriguez 2004; cited from earlier work
[7] = 100% corresponds to zero effect, −50% corresponds to IC50

GCN2, sequence (Q9P2K8 whole entry): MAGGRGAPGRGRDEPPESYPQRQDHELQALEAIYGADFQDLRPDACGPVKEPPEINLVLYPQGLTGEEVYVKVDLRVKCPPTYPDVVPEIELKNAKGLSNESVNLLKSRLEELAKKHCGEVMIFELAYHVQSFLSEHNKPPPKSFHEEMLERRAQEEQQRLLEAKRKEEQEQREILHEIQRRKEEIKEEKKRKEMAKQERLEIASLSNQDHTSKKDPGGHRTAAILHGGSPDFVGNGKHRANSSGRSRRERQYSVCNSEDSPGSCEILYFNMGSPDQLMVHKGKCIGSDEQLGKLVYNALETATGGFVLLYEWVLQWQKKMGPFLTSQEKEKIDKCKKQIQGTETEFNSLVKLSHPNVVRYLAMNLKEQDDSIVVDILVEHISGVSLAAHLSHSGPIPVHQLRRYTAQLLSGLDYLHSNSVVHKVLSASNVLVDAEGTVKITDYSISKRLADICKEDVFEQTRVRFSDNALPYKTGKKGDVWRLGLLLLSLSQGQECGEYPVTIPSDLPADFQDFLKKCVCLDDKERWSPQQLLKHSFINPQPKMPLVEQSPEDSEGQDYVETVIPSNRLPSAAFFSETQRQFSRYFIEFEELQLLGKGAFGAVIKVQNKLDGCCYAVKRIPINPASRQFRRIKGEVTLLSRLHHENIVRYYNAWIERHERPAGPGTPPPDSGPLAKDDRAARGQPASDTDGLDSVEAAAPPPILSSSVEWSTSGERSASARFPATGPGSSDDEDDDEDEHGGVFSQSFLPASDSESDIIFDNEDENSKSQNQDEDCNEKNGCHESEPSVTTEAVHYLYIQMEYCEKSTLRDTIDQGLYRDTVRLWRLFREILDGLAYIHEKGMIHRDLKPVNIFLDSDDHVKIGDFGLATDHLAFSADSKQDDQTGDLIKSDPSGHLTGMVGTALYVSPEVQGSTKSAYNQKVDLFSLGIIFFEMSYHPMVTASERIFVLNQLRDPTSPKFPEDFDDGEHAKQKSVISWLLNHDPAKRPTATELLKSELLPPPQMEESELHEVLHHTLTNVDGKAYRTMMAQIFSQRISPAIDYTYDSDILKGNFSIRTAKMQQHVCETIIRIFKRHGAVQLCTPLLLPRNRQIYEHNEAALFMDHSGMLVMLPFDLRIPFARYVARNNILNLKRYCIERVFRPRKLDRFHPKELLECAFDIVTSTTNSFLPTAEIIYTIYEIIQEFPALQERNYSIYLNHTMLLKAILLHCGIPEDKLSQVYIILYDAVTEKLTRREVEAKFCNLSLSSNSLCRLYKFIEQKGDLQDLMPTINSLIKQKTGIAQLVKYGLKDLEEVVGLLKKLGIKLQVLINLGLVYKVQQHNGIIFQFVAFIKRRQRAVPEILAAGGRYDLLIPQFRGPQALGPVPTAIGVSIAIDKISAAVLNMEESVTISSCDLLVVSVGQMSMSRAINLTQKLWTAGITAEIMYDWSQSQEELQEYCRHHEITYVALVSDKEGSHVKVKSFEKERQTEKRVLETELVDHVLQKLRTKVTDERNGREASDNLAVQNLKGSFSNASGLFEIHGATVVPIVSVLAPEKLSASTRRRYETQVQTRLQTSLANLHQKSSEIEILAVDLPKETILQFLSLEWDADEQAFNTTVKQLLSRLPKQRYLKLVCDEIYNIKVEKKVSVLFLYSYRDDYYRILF

Structure (SMILES) | IC50 [2] [nM] | IC50 [3] [nM] | other results
Cn1cc(C[C@H](N)C(=O)O)c2ccccc21 [Compound 1MT, 1 methyl-tryptophan] |  |  | tumor regression [1]: unable to elicit tumor regression
COc1cc(Nc2nc3cncc(-c4cnn(CCC(C)C)c4)n3n2)ccc1N1CCN(C)CC1 [Compound A76, [3-methoxy-4-(4-methyl-piperazin-1-yl)-phenyl]-{5-[1-(3-methyl-butyl)-1H-pyrazol-4-yl]-[1,2,4]triazolo[1,5-a]pyrazin-2-yl}-amine] | < 1000 | 1000 to 5000 | 
COc1cc(Nc2nc3cncc(-c4cnn(C5CCOCC5)c4)n3n2)ccc1N1CCN(C)CC1 [Compound A77, [3-methoxy-4-(4-methyl-piperazin-1-yl)-phenyl]-{5-[1-(tetrahydro-pyran-4-yl)-1H-pyrazol-4-yl]-[1,2,4]triazolo[1,5-a]pyrazin-2-yl}-amine] | < 1000 | 1000 to 5000 | 
COc1cc(Nc2nc3cncc(-c4cnn(C)c4)n3n2)ccc1CN1CCOCC1 [Compound A78, (3-methoxy-4-morpholin-4-ylmethyl-phenyl)-[5-(1-methyl-1H-pyrazol-4-yl)-[1,2,4]triazolo[1,5-a]pyrazin-2-yl]-amine] | < 1000 | 1000 to 5000 | 
COc1cc(N2CCN(C)CC2)ccc1Nc1nc2cncc(-c3cnn(C)c3)n2n1 [Compound A79, [2-methoxy-4-(4-methyl-piperazin-1-yl)-phenyl]-[5-(1-methyl-1H-pyrazol-4-yl)-[1,2,4]triazolo[1,5-a]pyrazin-2-yl]-amine] | 5000 to 10000 |  | SYK (enzyme assay) % at 3 μM [3, 7]: −9@3%
Cn1cc(-c2cncc3nc(Nc4cccc(N5CCOCC5)c4)nn23)cn1 [Compound A80, [5-(1-methyl-1H-pyrazol-4-yl)-[1,2,4]triazolo[1,5-a]pyrazin-2-yl]-(3-morpholin-4-yl-phenyl)-amine] | < 1000 |  | SYK (enzyme assay) % at 1 μM ([3]; at 1 μM, 100% corresponds to zero effect, −50% corresponds to IC50): −26@1%
CC(=O)Nc1ccc(Nc2nc3cncc(-c4cnn(C)c4)n3n2)cc1C [Compound A81, N-{2-methyl-4-[5-(1-methyl-1H-pyrazol-4-yl)-[1,2,4]triazolo[1,5-a]pyrazin-2-ylamino]-phenyl}-acetamide] | < 1000 | 1000 to 5000 | 
Cc1cc(Nc2nc3cncc(-c4cnn(C)c4)n3n2)ccc1NC(=O)C1CCNCC1 [Compound A82, piperidine-4-carboxylic acid {2-methyl-4-[5-(1-methyl-1H-pyrazol-4-yl)-[1,2,4]triazolo[1,5-a]pyrazin-2-ylamino]-phenyl}-amide] | < 1000 | 1000 to 5000 | 
COc1cc(Nc2ncc(F)c(Nc3ccc4c(n3)NC(=O)C(C)(C)O4)n2)cc(OC)c1OC [Compound R406] |  |  | bone erosion [4]: significantly reduced; clinical scores [4]: significant improvement; serum cytokine concentrations [4]: significantly reduced; efficacy (ACR scores) [5]: efficacy (ACR scores improvement); tolerability [5]: good tolerability
N=C(NO)NCC[C@H](N)C(=O)O [N-hydroxy-nor-L-Arg] |  |  | growth of s.c. 3 LL lung carcinoma [6]: blocks growth

Now from value to compound, other results behind:

IC50 [2] [nM] | IC50 [3] [nM] | Structure (SMILES) | other results
< 1000 | 5000 to 10000 | Cc1cc(Nc2nc3cncc(-c4cnn(C)c4)n3n2)ccc1NC(=O)C1CCOCC1 [Compound A83, tetrahydro-pyran-4-carboxylic acid {2-methyl-4-[5-(1-methyl-1H-pyrazol-4-yl)-[1,2,4]triazolo[1,5-a]pyrazin-2-ylamino]-phenyl}-amide] | 
< 1000 | 5000 to 10000 | COc1cc(Nc2nc3cncc(-c4cnn(C)c4)n3n2)ccc1NC(=O)C1CCNCC1 [Compound A84, piperidine-4-carboxylic acid {2-methoxy-4-[5-(1-methyl-1H-pyrazol-4-yl)-[1,2,4]triazolo[1,5-a]pyrazin-2-ylamino]-phenyl}-amide] | 
< 1000 | 1000 to 5000 | COc1cc(Nc2nc3cncc(-c4cnn(C)c4)n3n2)ccc1NC(C)=O [Compound A85, N-{2-methoxy-4-[5-(1-methyl-1H-pyrazol-4-yl)-[1,2,4]triazolo[1,5-a]pyrazin-2-ylamino]-phenyl}-acetamide] | 
< 1000 | < 1000 | COc1cc(Nc2nc3cncc(-c4cccc(O)c4)n3n2)ccc1N1CCN(C)CC1 [Compound A86, 3-{2-[3-methoxy-4-(4-methyl-piperazin-1-yl)-phenylamino]-[1,2,4]triazolo[1,5-a]pyrazin-5-yl}-phenol] | 
< 1000 | < 1000 | COc1cc(Nc2nc3cncc(-c4ccc(O)cc4)n3n2)ccc1N1CCN(C)CC1 [Compound A87, 4-{2-[3-methoxy-4-(4-methyl-piperazin-1-yl)-phenylamino]-[1,2,4]triazolo[1,5-a]pyrazin-5-yl}-phenol] | 
< 1000 |  | CN1CCN(c2ncc(Nc3nc4cncc(-c5cnn(C)c5)n4n3)cn2)CC1 [Compound A88, [2-(4-methyl-piperazin-1-yl)-pyrimidin-5-yl]-[5-(1-methyl-1H-pyrazol-4-yl)-[1,2,4]triazolo[1,5-a]pyrazin-2-yl]-amine] | SYK (enzyme assay) % at 3 μM [3, 7]: −13@3%
< 1000 | 5000 to 10000 | COc1cc(Nc2nc3cncc(-c4cnn(C)c4)n3n2)ccc1NC(=O)C1CCOCC1 [Compound A89, tetrahydro-pyran-4-carboxylic acid {2-methoxy-4-[5-(1-methyl-1H-pyrazol-4-yl)-[1,2,4]triazolo[1,5-a]pyrazin-2-ylamino]-phenyl}-amide] | 
< 1000 | 1000 to 5000 | COc1cc(Nc2nc3cncc(-c4ccc(N5CCOCC5)cc4)n3n2)ccc1N1CCN(C)CC1 [Compound A91, [3-methoxy-4-(4-methyl-piperazin-1-yl)-phenyl]-[5-(4-morpholin-4-yl-phenyl)-[1,2,4]triazolo[1,5-a]pyrazin-2-yl]-amine] | 
< 1000 | < 1000 | COc1ccc(-c2cncc3nc(Nc4ccc(N5CCN(C)CC5)c(OC)c4)nn23)cc1 [Compound A92, [3-methoxy-4-(4-methyl-piperazin-1-yl)-phenyl]-[5-(4-methoxy-phenyl)-[1,2,4]triazolo[1,5-a]pyrazin-2-yl]-amine] | 
< 1000 | 1000 to 5000 | COc1cc(Nc2nc3cncc(-c4ccc(NS(C)(=O)=O)cc4)n3n2)ccc1N1CCN(C)CC1 [Compound A93, N-(4-{2-[3-methoxy-4-(4-methyl-piperazin-1-yl)-phenylamino]-[1,2,4]triazolo[1,5-a]pyrazin-5-yl}-phenyl)-methanesulfonamide] | 
< 1000 | 1000 to 5000 | CNS(=O)(=O)c1ccc(-c2cncc3nc(Nc4ccc(N5CCN(C)CC5)c(OC)c4)nn23)cc1 [Compound A94, 4-{2-[3-methoxy-4-(4-methyl-piperazin-1-yl)-phenylamino]-[1,2,4]triazolo[1,5-a]pyrazin-5-yl}-N-methyl-benzenesulfonamide] | 
< 1000 | 1000 to 5000 | COc1cc(Nc2nc3cncc(-c4cccc(NS(C)(=O)=O)c4)n3n2)ccc1N1CCN(C)CC1 [Compound A95, N-(3-{2-[3-methoxy-4-(4-methyl-piperazin-1-yl)-phenylamino]-[1,2,4]triazolo[1,5-a]pyrazin-5-yl}-phenyl)-methanesulfonamide] | 
